In patent US20240342186A1, “PYRIDINE DERIVATIVES WITH N-LINKED CYCLIC SUBSTITUENTS AS cGAS INHIBITORS” (Boehringer Ingelheim International GmbH, priority 2021, published 2024):
Like-named read-outs stand apart in the source and are kept apart here.

Legend:
cGAS = cGAS (Homo sapiens (Human), UniProt Q8N884); assay: Human cGAS enzyme assay (hcGAS IC50, in vitro), cGAMP formation by RapidFire MS; assay type: biochemical; details: biochemical (in vitro) cGAS inhibition;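 note: enzyme activated by 45 bp dsDNA with GTP and ATP (30 µM each), 60 min compound pre-incubation then 90 min reaction, cGAMP relative to cyclic-di-GMP internal standard, 8-point dilutions up to 10 µM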
Sequence of cGAS (Q8N884 whole entry): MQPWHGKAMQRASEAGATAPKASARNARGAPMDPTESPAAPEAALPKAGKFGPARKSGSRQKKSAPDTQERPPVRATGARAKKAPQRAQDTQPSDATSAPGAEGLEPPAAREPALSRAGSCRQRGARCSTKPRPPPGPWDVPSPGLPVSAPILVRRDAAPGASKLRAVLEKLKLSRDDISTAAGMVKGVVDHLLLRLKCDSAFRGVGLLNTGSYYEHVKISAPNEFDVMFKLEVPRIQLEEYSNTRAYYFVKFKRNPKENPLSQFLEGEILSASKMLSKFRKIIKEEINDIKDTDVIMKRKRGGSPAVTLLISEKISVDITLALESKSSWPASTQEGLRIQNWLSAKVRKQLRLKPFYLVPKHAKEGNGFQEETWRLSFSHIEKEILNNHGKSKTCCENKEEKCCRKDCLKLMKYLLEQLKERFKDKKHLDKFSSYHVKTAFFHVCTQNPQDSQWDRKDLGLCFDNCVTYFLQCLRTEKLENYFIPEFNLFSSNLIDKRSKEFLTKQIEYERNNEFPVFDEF

[1] = system: cGAMP-stimulated THP1-Dual cells (pathway directly downstream of cGAS); assay: cGAMP stimulated counter cell assay: inhibition of IFN induction in cGAMP-stimulated THP1 cells (THP1(cGAMP) IC50); assay type: cell-based, human; details: for IC50: Homo sapiens, THP1-Dual; for Ratio THP1(cGAMP) IC50 / THP1(vir) IC50: selectivity for cGAS inhibition
Text: (§1) 6.2 Method: Human cGAS Cell Assay and cGAMP Stimulated Counter Cell Assay (THP1(vir) IC50 and THP1(cGAMP) IC50)
(§2) THP1-Dual™ cells (InvivoGen #thpd-nfis) expressing IRF dependent Lucia luciferase reporter were used as basis for both assays. For the detection of cellular cGAS activity cells were stimulated by a baculovirus (pFastbac-1, Invitrogen, no coding insert) infection that delivers the cGAS enzyme stimulating double-stranded DNA (measurement of THP1(vir) IC50).
(§3) For the counter assay, cells were stimulated by cGAMP (SigmaAldrich #SML1232) to activate the identical pathway independent and directly downstream of cGAS (measurement of THP1(cGAMP) IC50). Pathway activity was monitored by measuring the Lucia luciferase activity induced by either DNA stimulated cGAS enzyme activity (measurement of THP1(vir) IC50) or by cGAMP directly (measurement of THP1(cGAMP) IC50, counter assay).
(§4) Compounds were delivered in 10 mM DMSO solution, serially diluted and transferred to the 384 well assay plate (Greiner #781201) using an Echo acoustic dispenser. Typically, 8 concentrations were used with the highest concentration at 10 μM in the final assay volume followed by ˜1:5 dilution steps. DMSO concentration was set to 1% in the final assay volume. The 384 well assay plate contained 21 test compounds (column 1-22), and DMSO in column 23 and 24.
(§5) Cells, cultivated according to manufacturer conditions, were harvested by centrifugation at 300 g/10 min and were then resuspended and diluted to 1.66E5 cells/ml in fresh cell culture medium (RPMI 1640 (Gibco #A10491-01), 10% FCS (Gibco #10500), 1× GlutaMax (Gibco #35050-061), 1× Pen/Strep solution (Gibco #15140-122), 100 μg/ml Normocin (InvivoGen #ant-nr), 100 μg/ml Zeocin (InvivoGen #ant-zn), 10 μg/ml Blasticidin S (Life Technologies #A11139-03)). The baculovirus solution was then added 1:200 (have varied according to virus batch) to the cells (measurement of THP1(vir) IC50).
(§6) 30 μL of the cell/virus-mix were added to each well of the compound plate from column 1-23 via MultiDrop Combi dispenser (5000 cells/well). In column 24, 30 μl/5000 cells/well without virus were added as a low control.
(§7) The plates were then incubated for 18 h at 37° C. in a humidified incubator.
(§8) Following that, 15 μl of QuantiLuc detection reagent (InvivoGen #rep-qlcg5) were added to each well using a MultiDrop Combi. Measurement was done immediately after the addition using an EnVision reader (US-luminescence read-mode).
(§9) For data evaluation and calculation, the measurement of the low control was set as 0% control and the measurement of the high control was set as 100% control. The IC50 values were calculated using the standard 4 parameter logistic regression formula. Calculation: [y=(a−d)/(1+(x/c)^b)+d], a=low value, d=high value; x=conc M; c=IC50 M; b=slope

[2] = system: cellular cGAS activity in dsDNA-stimulated human whole blood; assay: Human whole blood assay (hWB IC50): IFNα2α production after dsDNA transfection; assay type: cell-based; details: inhibition of IFN induction in dsDNA-stimulated human whole blood
Protocol: 6.3 Method: Human Whole Blood Assay (Human WB IC50)
For the detection of cellular cGAS activity human whole blood was stimulated by transfection with double stranded DNA. Pathway activity was monitored by measuring the IFNα2α production.
Compounds were delivered as 10 mM DMSO solution and serially diluted and transferred to the 96-well cell culture plate (Corning #3595), prefilled with 20 μl OptiMEM (Gibco, #11058-021) in each well, using an Echo acoustic dispenser. Typically, 8 concentrations were used with the highest concentration at 10 µM in the final assay volume followed by ˜1:5 dilution steps. DMSO concentration was set to 0.1% in the final assay volume. The 96-well assay plate contained 10 test compounds, and DMSO in control wells.
Collection of human whole blood from 3 or more healthy donors (male or female, no medication for 7 days except contraceptive and thyroxine) as Na-Citrate blood (e.g. 3.8% in Monovettes from Sarstedt) was conducted in parallel. Whole blood was kept at room temperature for a maximum of 3 hours after collection until use in the assay.
160 μl of the whole blood samples was transferred to each well of the 96-well assay plates filled with compound/OptiMEM. All assay plates were prepared as duplicates with blood from different donors. Blood plates were kept at room temperature for 60 minutes and continuous shaking with 450 rpm, covered with the lid, but not sealed.
20 μl OptiMEM and 9.6:1 Fugene was added to all low control wells.
After covering assay plates with aera seals and the lid, blood plates were kept at room temperature for 30 minutes and continuous shaking with 450 rpm, followed by an overnight incubation of 22 h at 37° C. in the incubator, without shaking.
For the detection of IFNα-2α in human plasma, the biotinylated capture antibody (Antibody set IFNA2, Meso Scale Diagnostics #B21VH-3, including coating and capture antibody) was diluted 1:17.5 in Diluent 100 (Meso Scale Diagnostics #R^50AA-4), according to the manufacturer's directions. U-Plex MSD GOLD 96-well Small Spot Strepavidin SECTOR Plates (Meso Scale Diagnostics #L45SA-5) were coated with 25 μl diluted capture antibody. Coated plates were incubated for 60 min at room temperature under continuous shaking at 700 rpm. MSD IFNα-2α plates were washed three times with 150 μl wash buffer (1x HBSS, 0.05% Tween).
After blocking the plates with 100 μl block solution/well (1x HBSS with 0.2% Tween, 2% BSA) for 60 min at room temperature and continuous shaking at 700 rpm, plates were emptied as dry as possible by dumping just before continuing with the human plasma.
Whole Blood assay plates were centrifuged at 1600 rpm for 10 minutes. 25 μl of supernatant was transferred with a pipetting robot from each whole blood plate to the corresponding IFNα-2α plate. Plates were sealed with microplate seals and kept at room temperature again under continuous shaking at 700 rpm for two hours.
Next MSD IFNα-2α plates were washed three times with 150 μl wash buffer (1×HBSS, 0.05% Tween), before adding 25 μl MSD SULFO-TAG IFNα-2α Antibody solution (1:100 diluted in Diluent 3 (Meso Scale Diagnostics #R50AP-2) to each well of the plates.
Afterwards plates were sealed with microplate seals and kept at room temperature again under continuous shaking at 700 rpm for two hours. Finally, MSD IFNα-2α plates were washed three times with 150 μl wash buffer (1×HBSS, 0.05% Tween). 150 μl 2× Read buffer was added to each well and plates were immediately measured with the MSD Sector S600 Reader using the vendor barcode.
For data evaluation and calculation, % control calculation of each well was based on the mean of high (DNA stimulated control) and mean of low (unstimulated control) controls by using the following formula:
[counts(sample)−counts(low))/(counts(high)−counts(low))]*100
The IC50 values were calculated using the standard 4 parameter logistic regression formula. Calculation: [y=(a−d)/(1+(x/c)^b)+d], a=low value, d=high value; x=conc M; c=IC50 M; b=slope

[3] = system: cellular cGAS activity in baculovirus-stimulated THP1-Dual cells (IRF dependent Lucia luciferase reporter); assay: Human cGAS cell assay: inhibition of IFN induction in virus-stimulated THP1 cells (THP1(vir) IC50); assay type: cell-based; details: Homo sapiens, THP1-Dual
Text: as §1, §2, §3, §4, §5, §6, §7, §8, §9

[4] = inhibition of IFN induction in cGAMP-stimulated THP1 cells, read-out: THP1(cGAMP) IC50 (converted)
[5] = inhibition of IFN induction in virus-stimulated THP1 cells, read-out: THP1(vir) IC50
[6] = read-out: THP1(vir) IC50, virus-stimulated THP1 cells, IFN induction
[7] = cGAMP-stimulated THP1 cells, counter assay, read-out: THP1(cGAMP) IC50 (converted)
[8] = read-out: THP1(vir) IC50, inhibition of IFN induction in virus-stimulated THP1 cells

Row | IC50 (cGAS) | IC50 [2] | IC50 [3, 5] | Structure (SMILES) | IC50 [1, 4] | Ratio THP1(cGAMP) IC50 / THP1(vir) IC50 [1] | further results
1 | 3 nM | 629 nM | 500 nM | C[C@H]1COCCN1c1cc(Br)cnc1O[C@H]1C[C@@H](C(=O)O)N(c2nc(C(F)F)nc3c2oc2ccccc23)C1 [Example 1.28] | > 16600 nM | >33 | 
2 |  | 3700 nM | 327 nM | CC1(C#N)CCCN(c2cc(Cl)cnc2O[C@H]2C[C@@H](C(=O)O)N(c3nc(C(F)F)nc4c3oc3ccccc34)C2)C1 (stereo partly shown) [Example 1.04] | 10000 nM | 31 | 
3 | 8 nM |  | 829 nM | N#CC1CN(c2cc(Cl)cnc2O[C@H]2C[C@@H](C(=O)O)N(c3nc(C(F)(F)F)nc4c3oc3ccccc34)C2)CCO1 (stereo partly drawn) [Example 1.01, (2S,4S)-4-{[5-Chloro-3-(2-cyanomorpholin-4-yl)pyridin-2-yl]oxy}-1-[4-(trifluoromethyl)-8-oxa-3,5-diazatricyclo[7.4.0.0^2,7]trideca-1(13),2,4,6,9,11-hexaen-6-yl]pyrrolidine-2-carboxylic acid] | 24600 nM | 30 | 
4 | 5 nM |  | 781 nM | O=C(O)[C@@H]1C[C@H](Oc2ncc(Cl)cc2N2CCc3nocc3C2)CN1c1nc(C(F)(F)F)nc2c1oc1ccccc12 [Example 1.07] | 18700 nM | 24 | 
5 |  | 850 nM | 848 nM | O=C(O)[C@@H]1C[C@H](Oc2ncc(Br)cc2N2CCOC3(COC3)C2)CN1c1nc(C(F)F)nc2c1oc1ccccc12 [Example 1.24] | > 16600 nM | >20 | 
6 | 4 nM |  | 831 nM | O=C(O)[C@@H]1C[C@H](Oc2ncc(Cl)cc2N2CCc3nocc3C2)CN1c1nc(C(F)F)nc2c1oc1ccccc12 [Example 1.08] | 18700 nM | 23 | 

The next lines start with the compound.

Row | Structure (SMILES) | IC50 (cGAS) | IC50 [2] | IC50 [3, 5] | IC50 [1, 4] | Ratio THP1(cGAMP) IC50 / THP1(vir) IC50 [1] | further results
7 | C[C@@H]1N(c2cc(-c3cccnc3C#N)cnc2O[C@H]2C[C@@H](C(=O)O)N(c3nc(C(F)(F)F)nc4c3oc3ccccc34)C2)CCOC12COC2 [Example 3.28] | 14 nM |  | 712 nM | 16400 nM | 23 | 
8 | CC(C)(C(=O)N[C@H]1C[C@@H](C(=O)O)N(c2nc(C(F)(F)F)nc3c2oc2ccccc23)C1)c1cn[nH]c1 [Example 58, reference compound] |  |  |  |  |  | IC50 [3, 6]: 21000 nM
9 | Cc1nc(N2C[C@@H](Nc3ccncc3)C[C@H]2C(=O)O)c2oc3ccccc3c2n1 [Example 38, reference compound] |  |  |  |  |  | IC50 [1, 7]: > 17000 nM
10 | C#Cc1cnc(O[C@H]2C[C@@H](C(=O)O)N(c3nc(Cl)nc4c3oc3ccccc34)C2)c(N2CCOC[C@@H]2C)c1 [Example 1.32] | 4 nM |  | 487 nM |  |  | 
11 | C#Cc1cnc(O[C@H]2C[C@@H](C(=O)O)N(c3nc(C)nc4c3oc3ccccc34)C2)c(N2CCOC3(COC3)[C@@H]2C)c1 [Example 2.03] |  | 9 nM | < 5 nM | 16400 nM |  | 
12 | C#Cc1cnc(O[C@H]2C[C@@H](C(=O)O)N(c3nc(C(F)F)nc4c3oc3ccccc34)C2)c(N2CCOC3(COC3)C2)c1 [Example 1.25] |  | 551 nM |  |  | >32 | IC50 ([1]; read-out: THP1(cGAMP) IC50): > 16600 nM; IC50 [3, 8]: 517 nM
13 | C[C@@H]1N(c2cc(-c3ccnc(N(C)C)c3)cnc2O[C@H]2C[C@@H](C(=O)O)N(c3nc(C(F)F)nc4c3oc3ccccc34)C2)CCOC12COC2 [Example 4.01, (2S,4S)-1-[4-(Difluoromethyl)-8-oxa-3,5-diazatricyclo[7.4.0.0^2,7]trideca-1(9),2(7),3,5,10,12-hexaen-6-yl]-4-({N,N-dimethyl-5-[(9S)-9-methyl-2,5-dioxa-8-azaspiro[3.5]nonan-8-yl]-[3,4′-bipyridin]-2′-yl}oxy)pyrrolidine-2-carboxylic acid] |  | 5 nM |  |  |  | IC50 ([1]; read-out: THP1(cGAMP) IC50): 6680 nM; IC50 [3, 8]: < 5 nM
14 | Cc1nc(N2CCC[C@H]2C(=O)O)c2oc3ccccc3c2n1 [Example 15, reference compound] |  |  |  |  |  | IC50 [1, 7]: > 17000 nM
15 | C[C@@H]1OCCN(c2cc(Cl)cnc2O[C@H]2C[C@@H](C(=O)O)N(c3nc(C(F)(F)F)nc4c3oc3ccccc34)C2)[C@H]1C [Example 1.06] | 65 nM |  | 951 nM | 14300 nM | 15 | 
16 | Cc1nc(N2C[C@@H](CC(=O)Nc3ccncc3)C[C@H]2C(=O)O)c2oc3ccccc3c2n1 [Example 28, reference compound] |  |  |  |  |  | IC50 [3, 6]: > 32000 nM
17 | C#Cc1cnc(O[C@H]2C[C@@H](C(=O)O)N(c3nc(C(F)F)nc4c3oc3ccccc34)C2)c(N2CCOC3(COC3)[C@@H]2C)c1 [Example 1.11] |  | 5 nM | 6 nM | 18500 nM |  | 
